# In patent US6613761B1, “Benzoxazepine compounds, their production and use” (Takeda Chemical Industries, Ltd., priority 1995, dated 2003):
# Counter-ions that a name gives are not always drawn.
# Legend:
# [1] = target: T1, squalene synthetase (Homo sapiens, UniProt P37268); assay: Squalene synthetase inhibitory activity (human-derived enzyme prepared from HepG2 cells); format: biochemical; conditions: [1-3H] farnesyl pyrophosphate, 37° C., 45 minutes, read-out: Inhibitory Activity (IC50, 10^−9 M)
# T1 construct: This suspension was used as the enzyme solution; endogenous in cells; host or cells: HepG2 human hepatic carcinoma cells; membrane fraction (105000×g sediment) of the sonicate
# T1 sequence (P37268 1-417): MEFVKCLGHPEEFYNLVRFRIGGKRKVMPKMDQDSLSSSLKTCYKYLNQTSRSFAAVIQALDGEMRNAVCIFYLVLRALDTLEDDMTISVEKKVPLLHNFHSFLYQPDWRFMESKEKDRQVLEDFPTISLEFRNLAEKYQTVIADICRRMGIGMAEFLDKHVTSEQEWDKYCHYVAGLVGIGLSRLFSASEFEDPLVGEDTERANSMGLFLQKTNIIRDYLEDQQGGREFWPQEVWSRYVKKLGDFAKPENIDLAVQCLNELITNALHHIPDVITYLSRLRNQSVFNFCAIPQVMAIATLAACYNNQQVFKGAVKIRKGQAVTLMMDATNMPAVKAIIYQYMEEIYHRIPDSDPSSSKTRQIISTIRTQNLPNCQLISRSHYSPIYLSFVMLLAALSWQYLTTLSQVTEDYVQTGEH
# Description: The squalene synthetase inhibitory activity was assayed as follows with the enzyme solutions prepared in accordance with the method described below.
# More specifically, an enzyme solution (protein content 0.8 μg) prepared in accordance with the method described below was added to a solution (total volume 50 μl)) containing 5 μM [1-^3H] farnesyl pyrophosphate (specific activity 25 μCi/mole), 1 mM NADPH (nicotinamide adenine dinucleotide phosphate of reduced type), 5 mM MgCl2, 6 mM glutathione, a 100 mM buffer solution of potassium phosphate (pH 7.4) and a test drug (used as an aqueous solution or a DMSO solution), then the reaction was allowed to proceed at 37° C. for 45 minutes. To the reaction mixture was added 150 μl of a mixture of chloroform and methanol (1:2) to suspend the reaction, followed by adding 50 Al of chloroform and 50 μl of a 3N solution of sodium hydroxide. 50 μl of the chloroform layer (lower layer) containing the reaction mixture having squalene as the principal component and 3 ml of toluene-based liquid scintillator were mixed, and its radioactivity was determined by means of a liquid scintillation counter.
# The squalene synthetase inhibitory activity was expressed in terms of the concentration inhibiting by 50% the radioactivity taken into the chloroform layer (IC50, molar concentration (M)), as shown in Table 7. Preparation of human-derived enzyme
# Human hepatic carcinoma cells HepG2 (about 1×10^9 cells) obtained by incubation on a Dulbecco-modified Eagle's medium (37° C. in the presence of 5% CO2) containing 10% fetal bovine serum were suspended in 10 ml of an ice-cooled buffer solution (100 mM potassium phosphate buffer (pH 7.4), 30 mM nicotinamide and 2.5 mM MgCl2]. The cells were crashed by means of ultrasonication (for 30 seconds, twice). The sonicate thus obtained was subjected to centrifugation for 20 minutes (4° C.) with 10000×g. The supernatant layer was subjected to further centrifugation for 90 minutes (4° C.) with 105000×g. The sediment was then suspended in an ice-cooled 100 mM potassium phosphate buffer (pH 7.4), which was again subjected to centrifugation for 90 minutes (4° C.) with 105000×g. This fraction was suspended in an ice-cooled 100 mM potassium phosphate buffer solution (pH 7.4) (about 4 mg/ml protein concentration). This suspension was used as the enzyme solution.
SMILES,melting point,IC50 [1]
CCOP(=O)(CNC(=O)C[C@H]1O[C@H](c2cccc(OC)c2OC)c2cc(Cl)ccc2N(CC(C)(C)CO)C1=O)OCC,138 to 140 °C,
CCC(C)[C@H](NC(=O)C[C@H]1O[C@H](c2cccc(OC)c2OC)c2cc(Cl)ccc2N(CC(C)(C)C)C1=O)C(=O)O (stereo partly drawn) [Compound 4-8],137 to 139 °C,11 nM
COc1cccc([C@H]2O[C@H](CC(=O)N[C@@H](CCC(=O)O)C(=O)O)C(=O)N(CC(C)(C)C)c3ccc(Cl)cc32)c1OC [Compound 4-9],152 to 155 °C,11 nM
COc1cccc([C@H]2O[C@H](CC(=O)N[C@@H](Cc3ccccc3)C(=O)O)C(=O)N(CC(C)(C)C)c3ccc(Cl)cc32)c1OC [Compound 4-15],134 to 136 °C,19 nM
COc1cccc([C@H]2O[C@H](CC(=O)N3CCC(=CC(=O)O)CC3)C(=O)N(CC(C)(C)C)c3ccc(Cl)cc32)c1OC [Compound 4-18],228 to 230 °C,18 nM
COc1cccc([C@H]2O[C@H](CC(=O)NCCC(=O)O)C(=O)N(CC(C)(C)C)c3ccc(Cl)cc32)c1OC [Compound 4-21],165 to 167 °C,11 nM
COc1cccc([C@H]2O[C@H](CC(=O)NCC(O)CC(=O)O)C(=O)N(CC(C)(C)C)c3ccc(Cl)cc32)c1OC (stereo partly drawn) [Compound 4-24],122 to 124 °C,14 nM
COc1cccc([C@H]2O[C@H](CC(=O)N[C@@H](Cc3ccc(O)cc3)C(=O)O)C(=O)N(CC(C)(C)C)c3ccc(Cl)cc32)c1OC [Compound 4-26],160 to 162 °C,15 nM
COc1cccc([C@H]2O[C@H](CC(=O)N3CCN(CC(=O)O)C(=O)C3)C(=O)N(CC(C)(C)C)c3ccc(Cl)cc32)c1OC [Compound 4-31],162 to 164 °C,20 nM
"COc1cccc([C@H]2O[C@H](Cc3nnn[nH]3)C(=O)N(CC(C)(C)C)c3ccc(Cl)cc32)c1OC [Compound 7, (3R,5S)-7-Chloro-5-(2,3-dimethoxyphenyl)-1-neopentyl-1,2,3,5-tetrahydro-3-[1H(or 3H)-tetrazol-5-yl]methyl-4,1-benzoxazepin-2-one]",148 to 150 °C,11 nM
"COc1cccc([C@H]2O[C@H](Cc3nc(=O)o[nH]3)C(=O)N(CC(C)(C)C)c3ccc(Cl)cc32)c1OC [Compound 8, (3R,5S)-7-Chloro-5-(2,3-dimethoxyphenyl)-1-neopentyl-3-(2,5-dihydro-5-oxo-1,2,4-oxadiazol-3-yl) methyl-1,2,3,5-tetrahydro-4,1-benzoxazepin-2-one]",130 to 133 °C,12 nM
"COc1cccc([C@H]2O[C@H](Cc3nnn[nH]3)C(=O)N(CC(C)(C)C)c3ccc(Cl)cc32)c1OC [Compound 9, (3R, 5S)-7-Chloro-5-(2,3-dimethoxyphenyl)-1-neopentyl-1,2,3,5-tetrahydro-3-(tetrazol-5-yl)methyl-4,1-benzoxazepin-2-one sodium salt]",,9.5 nM
"COc1cccc([C@H]2O[C@H](Cc3nnn[nH]3)C(=O)N(CC(C)(C)CO)c3ccc(Cl)cc32)c1OC [Compound 11, (3R, 5S)-7-Chloro-5-(2,3-dimethoxyphenyl)-1-(3-hydroxy-2,2-dimethylpropyl)-1,2,3,5-tetrahydro-3-[1H (or 3H)-tetrazol-5-yl]methyl-4,1-benzoxazepin-2-one]",158 to 160 °C,
COc1cccc([C@H]2O[C@H](CC(=O)NS(=O)(=O)c3ccccc3)C(=O)N(CC(C)(C)C)c3ccc(Cl)cc32)c1OC [Compound 17-2],158 to 161 °C,9.3 nM
COc1cccc([C@H]2O[C@H](CC(=O)NS(=O)(=O)C(C)C)C(=O)N(CC(C)(C)C)c3ccc(Cl)cc32)c1OC [Compound 17-3],149 to 150 °C,11 nM
COc1cccc([C@H]2O[C@H](CC(=O)N3CCC(C(=O)NS(C)(=O)=O)CC3)C(=O)N(CC(C)(C)C)c3ccc(Cl)cc32)c1OC [Compound 18],187 to 189 °C,15 nM
"COc1cccc([C@H]2O[C@H](CC(=O)NCP(=O)(O)O)C(=O)N(CC(C)(C)CO)c3ccc(Cl)cc32)c1OC [Compound 27, (3R,5S)-N-phosphonomethyl-7-chloro-5-(2,3-dimethoxyphenyl)-1-(3-hydroxy-2,2-dimethylpropyl)-2-oxo-1,2,3,5-tetrahydro-4,1-benzoxazepine-3-acetamide]",,20 nM
"COc1cccc([C@H]2O[C@H](CC(=O)NS(C)(=O)=O)C(=O)N(CC(C)(C)COC(C)=O)c3ccc(Cl)cc32)c1OC [Compound 41, (3R,5S)-N-Methylsulfonyl-1-(3-acetoxy-2,2-dimethylpropyl)-7-chloro-5-(2,3-dimethoxyphenyl)-2-oxo-1,2,3,5-tetrahydro-4,1-benzoxazepine-3-acetamide]",108 to 112 °C,

# Further compounds by falling IC50 [1], results first:
melting point,IC50 [1],SMILES
,48 nM,"COc1cccc([C@H]2O[C@H](CC(=O)NS(C)(=O)=O)C(=O)N(CC(C)(CO)CO)c3ccc(Cl)cc32)c1OC [Compound 20, (3R,5S)-N-methylsulfonyl-7-chloro-5-(2,3-dimethoxyphenyl)-1-(3-hydroxy-2-hydroxymethyl-2-methylpropyl)-2-oxo-1,2,3,5-tetrahydro-4,1-benzoxazepine-3-acetamide]"
156 to 159 °C,18 nM,COc1cccc([C@H]2O[C@H](CC(=O)N3CCC(O)(C(=O)O)CC3)C(=O)N(CC(C)(C)C)c3ccc(Cl)cc32)c1OC [Compound 4-19]
,18 nM,COc1cccc([C@H]2O[C@H](CC(=O)N3CCC(C(=O)O)CC3)C(=O)N(CC(C)(C)CO)c3ccc(Cl)cc32)c1OC [Compound 13-2]
163 to 166 °C,17 nM,COc1cccc([C@H]2O[C@H](CC(=O)N3CCC(O)(CC(=O)O)CC3)C(=O)N(CC(C)(C)C)c3ccc(Cl)cc32)c1OC [Compound 4-20]
129 to 132 °C,15 nM,COc1cccc([C@H]2O[C@H](CC(=O)N[C@H](C(=O)O)C(C)C)C(=O)N(CC(C)(C)C)c3ccc(Cl)cc32)c1OC [Compound 4-29]
,13 nM,COc1cccc([C@H]2O[C@H](CC(=O)NS(=O)(=O)c3ccccc3C)C(=O)N(CC(C)(C)C)c3ccc(Cl)cc32)c1OC [Compound 17-1]
87 to 92 °C,12 nM,COc1cccc([C@H]2O[C@H](CC(=O)N[C@@H](CC(C)C)C(=O)O)C(=O)N(CC(C)(C)C)c3ccc(Cl)cc32)c1OC [Compound 4-30]
145 to 150 °C,11 nM,COc1cccc([C@H]2O[C@H](CC(=O)N[C@@H](CC(=O)O)C(=O)O)C(=O)N(CC(C)(C)C)c3ccc(Cl)cc32)c1OC [Compound 4-10]
134 to 136 °C,11 nM,COc1cccc([C@H]2O[C@H](CC(=O)N(C)CC(=O)O)C(=O)N(CC(C)(C)C)c3ccc(Cl)cc32)c1OC [Compound 4-12]
135 to 140 °C,9.3 nM,CCS(=O)(=O)NC(=O)C[C@H]1O[C@H](c2cccc(OC)c2OC)c2cc(Cl)ccc2N(CC(C)(C)C)C1=O [Compound 17-4]
